Columns and labels:
[1] = molecular target: T1, Calcium/calmodulin-dependent protein kinase type IV (Homo sapiens) (UniProt Q16566); test: Inhibition of human recombinant CaMK4 at 500 nM in presence of ATP by radiometric assay relative to control
T1 sequence (whole entry): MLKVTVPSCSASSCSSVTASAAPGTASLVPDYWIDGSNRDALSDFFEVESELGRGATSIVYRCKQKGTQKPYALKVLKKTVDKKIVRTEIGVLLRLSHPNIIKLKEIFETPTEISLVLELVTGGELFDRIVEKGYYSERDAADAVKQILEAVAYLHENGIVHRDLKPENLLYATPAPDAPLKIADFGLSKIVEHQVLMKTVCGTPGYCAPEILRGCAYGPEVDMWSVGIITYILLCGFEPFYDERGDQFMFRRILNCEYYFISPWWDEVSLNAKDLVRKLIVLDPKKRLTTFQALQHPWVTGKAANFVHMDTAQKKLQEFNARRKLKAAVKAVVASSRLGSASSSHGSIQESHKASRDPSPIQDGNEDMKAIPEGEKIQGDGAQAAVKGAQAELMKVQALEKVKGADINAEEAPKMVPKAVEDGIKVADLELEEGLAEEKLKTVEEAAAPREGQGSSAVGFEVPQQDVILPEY

[2] = molecular target: T2, Protein kinase C zeta type (Homo sapiens) (UniProt Q05513); test: Inhibition of human recombinant PKCz at 500 nM in presence of ATP by radiometric assay relative to control
T2 sequence (whole entry): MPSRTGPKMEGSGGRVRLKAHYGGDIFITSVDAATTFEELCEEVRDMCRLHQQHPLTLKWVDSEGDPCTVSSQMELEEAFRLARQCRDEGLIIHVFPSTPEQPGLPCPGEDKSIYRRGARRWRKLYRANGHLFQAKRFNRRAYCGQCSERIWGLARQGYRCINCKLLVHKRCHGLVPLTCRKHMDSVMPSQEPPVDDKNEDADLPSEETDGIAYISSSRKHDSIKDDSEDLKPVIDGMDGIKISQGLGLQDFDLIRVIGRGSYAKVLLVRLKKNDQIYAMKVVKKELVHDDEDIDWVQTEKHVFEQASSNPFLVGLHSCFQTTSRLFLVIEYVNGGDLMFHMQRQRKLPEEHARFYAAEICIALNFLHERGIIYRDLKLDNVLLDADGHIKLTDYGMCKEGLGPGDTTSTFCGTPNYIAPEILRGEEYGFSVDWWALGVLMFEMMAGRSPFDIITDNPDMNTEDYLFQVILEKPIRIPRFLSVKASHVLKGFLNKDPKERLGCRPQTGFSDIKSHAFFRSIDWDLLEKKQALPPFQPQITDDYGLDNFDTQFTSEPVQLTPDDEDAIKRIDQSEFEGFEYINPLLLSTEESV

[3] = molecular target: Fibroblast growth factor receptor 2 (Homo sapiens) (UniProt P21802); test: Inhibition of human recombinant FGFR2 at 500 nM related to control ULK1
Chain of Fibroblast growth factor receptor 2 (Homo sapiens) (P21802 22-821 limits assumed): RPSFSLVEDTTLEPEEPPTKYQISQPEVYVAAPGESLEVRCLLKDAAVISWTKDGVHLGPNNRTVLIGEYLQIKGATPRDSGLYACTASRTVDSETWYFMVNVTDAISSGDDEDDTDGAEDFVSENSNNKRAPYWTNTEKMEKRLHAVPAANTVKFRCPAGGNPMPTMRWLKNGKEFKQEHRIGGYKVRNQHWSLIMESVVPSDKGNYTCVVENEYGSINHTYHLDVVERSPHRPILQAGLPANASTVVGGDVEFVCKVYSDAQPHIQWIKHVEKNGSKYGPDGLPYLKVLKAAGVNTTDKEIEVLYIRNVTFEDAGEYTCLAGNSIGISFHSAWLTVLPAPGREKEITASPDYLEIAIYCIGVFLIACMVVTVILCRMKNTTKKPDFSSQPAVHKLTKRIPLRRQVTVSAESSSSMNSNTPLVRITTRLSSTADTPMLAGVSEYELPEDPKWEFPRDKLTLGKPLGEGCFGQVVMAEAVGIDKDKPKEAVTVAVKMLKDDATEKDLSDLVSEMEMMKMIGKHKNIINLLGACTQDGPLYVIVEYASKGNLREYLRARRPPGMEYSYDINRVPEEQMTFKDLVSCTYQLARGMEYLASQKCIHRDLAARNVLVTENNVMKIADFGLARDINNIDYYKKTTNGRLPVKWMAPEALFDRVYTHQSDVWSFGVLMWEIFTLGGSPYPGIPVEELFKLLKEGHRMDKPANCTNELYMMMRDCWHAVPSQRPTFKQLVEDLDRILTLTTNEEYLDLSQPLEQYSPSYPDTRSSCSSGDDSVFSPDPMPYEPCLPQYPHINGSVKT

[4] = molecular target: Mitogen-activated protein kinase 9 (Homo sapiens) (UniProt P45984); test: Inhibition of human recombinant JNK2 at 500 nM related to control ULK1
Chain of Mitogen-activated protein kinase 9 (Homo sapiens) (P45984 whole entry, looked up): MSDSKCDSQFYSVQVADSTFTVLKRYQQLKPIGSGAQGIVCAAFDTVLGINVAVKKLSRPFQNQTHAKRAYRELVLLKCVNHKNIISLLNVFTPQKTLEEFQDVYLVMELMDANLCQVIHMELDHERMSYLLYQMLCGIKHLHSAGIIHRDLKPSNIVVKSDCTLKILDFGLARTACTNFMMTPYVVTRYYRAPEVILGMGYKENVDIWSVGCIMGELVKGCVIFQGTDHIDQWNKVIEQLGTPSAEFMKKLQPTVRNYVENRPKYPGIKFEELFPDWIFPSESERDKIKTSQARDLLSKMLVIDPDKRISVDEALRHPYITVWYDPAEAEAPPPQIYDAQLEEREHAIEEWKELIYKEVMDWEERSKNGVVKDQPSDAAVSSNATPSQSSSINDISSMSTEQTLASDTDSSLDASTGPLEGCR

[5] = molecular target: SRSF protein kinase 2 (Homo sapiens) (UniProt P78362); test: Inhibition of human recombinant SRPK2 at 500 nM related to control ULK1
Chain of SRSF protein kinase 2 (Homo sapiens) (P78362 whole entry, looked up): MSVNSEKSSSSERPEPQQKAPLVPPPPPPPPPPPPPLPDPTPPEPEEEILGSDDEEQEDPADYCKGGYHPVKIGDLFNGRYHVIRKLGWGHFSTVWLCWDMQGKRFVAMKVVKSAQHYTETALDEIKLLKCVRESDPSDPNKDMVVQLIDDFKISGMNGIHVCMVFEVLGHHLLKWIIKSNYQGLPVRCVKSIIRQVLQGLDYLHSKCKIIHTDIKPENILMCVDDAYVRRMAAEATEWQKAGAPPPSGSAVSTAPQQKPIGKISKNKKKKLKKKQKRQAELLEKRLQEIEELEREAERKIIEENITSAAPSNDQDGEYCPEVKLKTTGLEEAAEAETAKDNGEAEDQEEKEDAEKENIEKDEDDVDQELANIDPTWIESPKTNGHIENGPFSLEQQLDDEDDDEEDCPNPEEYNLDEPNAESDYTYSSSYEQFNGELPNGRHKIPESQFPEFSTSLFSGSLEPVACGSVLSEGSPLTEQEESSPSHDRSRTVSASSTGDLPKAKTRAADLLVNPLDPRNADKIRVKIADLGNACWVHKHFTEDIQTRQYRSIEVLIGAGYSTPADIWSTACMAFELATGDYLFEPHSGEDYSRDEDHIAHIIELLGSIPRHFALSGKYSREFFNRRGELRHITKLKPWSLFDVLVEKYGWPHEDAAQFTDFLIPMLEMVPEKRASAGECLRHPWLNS

[6] = molecular target: Serine/threonine-protein kinase pim-1 (Homo sapiens) (UniProt P11309); test: Inhibition of human recombinant PIM1 at 15 nM in presence of ATP by radiometric assay relative to control
Chain of Serine/threonine-protein kinase pim-1 (Homo sapiens) (P11309 whole entry, looked up): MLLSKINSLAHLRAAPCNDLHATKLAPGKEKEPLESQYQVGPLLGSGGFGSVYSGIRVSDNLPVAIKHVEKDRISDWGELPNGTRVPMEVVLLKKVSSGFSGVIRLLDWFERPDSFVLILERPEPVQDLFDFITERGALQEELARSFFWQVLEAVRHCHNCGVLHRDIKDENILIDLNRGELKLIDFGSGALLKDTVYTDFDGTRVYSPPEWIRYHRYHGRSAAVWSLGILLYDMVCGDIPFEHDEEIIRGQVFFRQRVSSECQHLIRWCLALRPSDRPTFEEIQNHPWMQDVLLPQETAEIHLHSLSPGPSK

[7] = molecular target: Serine/threonine-protein kinase pim-3 (Homo sapiens) (UniProt Q86V86); test: Inhibition of human recombinant PIM3 at 15 nM related to control ULK1
[8] = molecular target: T3, Receptor-interacting serine/threonine-protein kinase 1 (Homo sapiens) (UniProt Q13546); test: Inhibition of human recombinant RIPK1 at 15 nM related to control ULK1
T3 sequence (whole entry): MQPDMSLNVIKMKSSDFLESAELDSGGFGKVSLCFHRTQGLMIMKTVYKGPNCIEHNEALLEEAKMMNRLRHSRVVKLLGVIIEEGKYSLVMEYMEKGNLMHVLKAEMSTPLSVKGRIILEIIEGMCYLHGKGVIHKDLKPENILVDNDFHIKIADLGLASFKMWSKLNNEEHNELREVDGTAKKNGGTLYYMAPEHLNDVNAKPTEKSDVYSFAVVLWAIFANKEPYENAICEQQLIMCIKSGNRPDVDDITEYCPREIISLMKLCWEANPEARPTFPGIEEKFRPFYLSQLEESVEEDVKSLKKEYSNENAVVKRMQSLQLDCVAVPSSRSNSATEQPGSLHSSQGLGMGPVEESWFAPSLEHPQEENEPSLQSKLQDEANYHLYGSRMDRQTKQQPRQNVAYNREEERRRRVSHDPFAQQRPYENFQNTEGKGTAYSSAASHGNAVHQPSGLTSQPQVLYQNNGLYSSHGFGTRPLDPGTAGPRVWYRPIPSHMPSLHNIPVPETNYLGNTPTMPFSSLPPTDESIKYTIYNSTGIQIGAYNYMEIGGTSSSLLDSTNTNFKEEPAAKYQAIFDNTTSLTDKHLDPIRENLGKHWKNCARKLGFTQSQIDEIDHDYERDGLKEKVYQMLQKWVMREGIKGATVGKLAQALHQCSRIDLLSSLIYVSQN

[9] = molecular target: T4, Mitogen-activated protein kinase kinase kinase 2 (Homo sapiens) (UniProt Q9Y2U5); test: Inhibition of human recombinant MAP3K2 at 40 nM in presence of ATP by radiometric assay relative to control
T4 sequence (whole entry): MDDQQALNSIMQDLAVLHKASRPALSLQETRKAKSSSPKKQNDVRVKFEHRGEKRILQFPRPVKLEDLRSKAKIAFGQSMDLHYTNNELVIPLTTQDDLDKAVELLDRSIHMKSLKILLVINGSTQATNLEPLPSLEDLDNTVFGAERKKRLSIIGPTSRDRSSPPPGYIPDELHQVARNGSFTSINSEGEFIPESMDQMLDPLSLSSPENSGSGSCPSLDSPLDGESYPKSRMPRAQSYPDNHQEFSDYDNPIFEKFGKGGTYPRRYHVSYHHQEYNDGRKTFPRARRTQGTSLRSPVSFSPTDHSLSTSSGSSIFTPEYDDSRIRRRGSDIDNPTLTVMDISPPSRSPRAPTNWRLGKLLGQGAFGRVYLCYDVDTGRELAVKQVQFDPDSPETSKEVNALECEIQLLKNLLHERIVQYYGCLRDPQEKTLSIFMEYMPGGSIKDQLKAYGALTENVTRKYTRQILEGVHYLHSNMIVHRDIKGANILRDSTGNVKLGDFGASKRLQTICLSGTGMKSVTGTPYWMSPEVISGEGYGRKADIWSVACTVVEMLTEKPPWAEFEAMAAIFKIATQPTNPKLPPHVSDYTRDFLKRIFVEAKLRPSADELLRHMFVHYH

[10] = molecular target: Protein kinase C eta type (Homo sapiens) (UniProt P24723); test: Inhibition of human recombinant PKCH at 40 nM in presence of ATP by radiometric assay relative to control
Chain of Protein kinase C eta type (Homo sapiens) (P24723 whole entry): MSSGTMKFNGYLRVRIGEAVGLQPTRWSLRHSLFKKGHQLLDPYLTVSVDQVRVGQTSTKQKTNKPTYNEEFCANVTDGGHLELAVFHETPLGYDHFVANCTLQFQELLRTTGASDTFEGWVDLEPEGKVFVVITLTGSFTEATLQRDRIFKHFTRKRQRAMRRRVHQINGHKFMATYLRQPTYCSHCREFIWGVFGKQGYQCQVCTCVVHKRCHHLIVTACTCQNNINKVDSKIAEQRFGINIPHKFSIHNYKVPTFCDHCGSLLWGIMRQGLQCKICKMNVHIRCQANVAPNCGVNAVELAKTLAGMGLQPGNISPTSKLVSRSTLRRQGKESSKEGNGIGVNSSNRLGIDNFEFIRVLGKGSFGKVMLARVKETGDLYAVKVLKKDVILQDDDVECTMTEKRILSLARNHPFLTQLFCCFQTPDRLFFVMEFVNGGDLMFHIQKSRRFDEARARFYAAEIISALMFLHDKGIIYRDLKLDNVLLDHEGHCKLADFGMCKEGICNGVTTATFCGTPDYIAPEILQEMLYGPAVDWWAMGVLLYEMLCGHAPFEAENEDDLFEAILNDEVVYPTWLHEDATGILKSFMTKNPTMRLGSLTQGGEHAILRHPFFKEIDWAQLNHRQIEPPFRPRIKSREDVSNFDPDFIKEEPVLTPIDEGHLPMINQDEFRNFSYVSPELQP

[11] = molecular target: RAF proto-oncogene serine/threonine-protein kinase (Homo sapiens) (UniProt P04049); test: Inhibition of human recombinant RAF1 at 40 nM related to control ULK1
Chain of RAF proto-oncogene serine/threonine-protein kinase (Homo sapiens) (P04049 whole entry): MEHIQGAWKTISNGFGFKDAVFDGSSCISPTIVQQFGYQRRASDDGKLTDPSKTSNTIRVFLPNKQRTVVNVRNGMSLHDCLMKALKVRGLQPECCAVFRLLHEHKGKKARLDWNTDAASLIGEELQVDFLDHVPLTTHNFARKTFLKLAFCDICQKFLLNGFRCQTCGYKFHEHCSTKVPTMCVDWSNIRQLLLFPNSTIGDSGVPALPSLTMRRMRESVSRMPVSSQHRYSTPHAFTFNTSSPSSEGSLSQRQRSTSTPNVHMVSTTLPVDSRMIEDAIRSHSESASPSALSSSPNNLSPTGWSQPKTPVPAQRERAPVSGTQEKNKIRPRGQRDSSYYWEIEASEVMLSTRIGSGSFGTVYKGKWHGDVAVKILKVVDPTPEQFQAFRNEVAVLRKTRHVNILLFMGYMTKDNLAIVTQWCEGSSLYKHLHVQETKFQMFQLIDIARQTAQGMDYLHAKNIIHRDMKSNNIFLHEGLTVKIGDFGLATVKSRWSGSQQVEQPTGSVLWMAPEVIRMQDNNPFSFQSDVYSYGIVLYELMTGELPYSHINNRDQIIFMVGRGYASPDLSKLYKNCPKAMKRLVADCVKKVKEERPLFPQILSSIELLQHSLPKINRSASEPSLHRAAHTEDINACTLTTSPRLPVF

Question: How did the inhibition [1] turn out when `CNC(=O)c1ccccc1Oc1nc(Nc2cc(OC)c(OC)c(OC)c2)ncc1Br` was run?
Answer: 0%

Question: What about the inhibition [2] of the same compound?
Answer: 0%

Question: And the fold change (FC) [3]?
Answer: 0.28

Question: What about the fold change (FC) [4] of the same compound?
Answer: 0

Question: And the fold change (FC) [5]?
Answer: 0.07

Question: What does the source list for `CC(C)[C@H](NC(=O)c1cc(-c2cnn3cc(-c4ccc(OCCN5CCCCC5)cc4)cnc23)cs1)C(F)(F)F`?
Answer: inhibition [6]: 14%; fold change (FC) [7]: 0.02; fold change (FC) [8]: 0.01

Question: What does the source list for `O=C(N[C@@H](C1CC1)C(F)(F)F)c1cc(-c2cnn3cc(-c4ccc(F)cc4)cnc23)cs1`?
Answer: inhibition [9]: 0%; inhibition [10]: 0%; fold change (FC) [11]: 0.01

— ChEMBL document CHEMBL5653631, “A Potent and Selective ULK1 Inhibitor Suppresses Autophagy and Sensitizes Cancer Cells to Nutrient Stress” (iScience, 2018)
